Common to all, as to format: biochemical
One experiment deals with CLK3 (Homo sapiens (Human), UniProt P49761). In words: Inhibition of CLK3 kinase activity evaluated at Nanosyn (ADP-Glo). Conditions: ADP-Glo luminescence. The method in brief:
(§1)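 Percent inhibition derived from luminescent ADP detection (ADP-Glo), normalised to DMSO-only and enzyme-free wells. Reactions ran in HEPES pH 7.5 buffer with Mg2+, Triton X-100 and BSA, 1% DMSO, ATP-initiated, for an assay-specific time.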
(In general: ADP-Glo turns the ADP formed in a reaction into a luminescent signal.)

Experiment [1] deals with EGFR Δ746-750/C797S mutant (Homo sapiens (Human), UniProt P00533, C797S/DEL746-750). In words: HotSpot radiometric kinase assay, EGFR Δ746-750/C797S mutant. Particulars: 10 μM ATP. In outline: (§2)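 Radiometric filter-binding assay with EGFR mutant kinase/substrate pairs in 20 mM Hepes pH 7.5 with Mg, EGTA, Brij35, BSA, Na3VO4, DTT, 1% DMSO. Compound preincubated ~20 min, then ATP/^33P-ATP added at 10 μM final. Reaction 120 min at room temperature, spotted on P81 paper; IC50 from curve fits.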

The target in the next experiment is CLK2 (Homo sapiens (Human), UniProt P49760). In words: Inhibition of CLK2 kinase activity evaluated at Nanosyn (ADP-Glo). Conditions: ADP-Glo luminescence. The method in brief:
as §1

A further experiment deals with EGFR L858R/T790M mutant (Homo sapiens (Human), UniProt P00533, L858R/T790M). In words: HotSpot radiometric kinase assay, EGFR L858R/T790M mutant. Conditions: 10 μM ATP. The method in brief: as §2
Chain of EGFR L858R/T790M mutant (P00533 25-1210 T790M/L858R): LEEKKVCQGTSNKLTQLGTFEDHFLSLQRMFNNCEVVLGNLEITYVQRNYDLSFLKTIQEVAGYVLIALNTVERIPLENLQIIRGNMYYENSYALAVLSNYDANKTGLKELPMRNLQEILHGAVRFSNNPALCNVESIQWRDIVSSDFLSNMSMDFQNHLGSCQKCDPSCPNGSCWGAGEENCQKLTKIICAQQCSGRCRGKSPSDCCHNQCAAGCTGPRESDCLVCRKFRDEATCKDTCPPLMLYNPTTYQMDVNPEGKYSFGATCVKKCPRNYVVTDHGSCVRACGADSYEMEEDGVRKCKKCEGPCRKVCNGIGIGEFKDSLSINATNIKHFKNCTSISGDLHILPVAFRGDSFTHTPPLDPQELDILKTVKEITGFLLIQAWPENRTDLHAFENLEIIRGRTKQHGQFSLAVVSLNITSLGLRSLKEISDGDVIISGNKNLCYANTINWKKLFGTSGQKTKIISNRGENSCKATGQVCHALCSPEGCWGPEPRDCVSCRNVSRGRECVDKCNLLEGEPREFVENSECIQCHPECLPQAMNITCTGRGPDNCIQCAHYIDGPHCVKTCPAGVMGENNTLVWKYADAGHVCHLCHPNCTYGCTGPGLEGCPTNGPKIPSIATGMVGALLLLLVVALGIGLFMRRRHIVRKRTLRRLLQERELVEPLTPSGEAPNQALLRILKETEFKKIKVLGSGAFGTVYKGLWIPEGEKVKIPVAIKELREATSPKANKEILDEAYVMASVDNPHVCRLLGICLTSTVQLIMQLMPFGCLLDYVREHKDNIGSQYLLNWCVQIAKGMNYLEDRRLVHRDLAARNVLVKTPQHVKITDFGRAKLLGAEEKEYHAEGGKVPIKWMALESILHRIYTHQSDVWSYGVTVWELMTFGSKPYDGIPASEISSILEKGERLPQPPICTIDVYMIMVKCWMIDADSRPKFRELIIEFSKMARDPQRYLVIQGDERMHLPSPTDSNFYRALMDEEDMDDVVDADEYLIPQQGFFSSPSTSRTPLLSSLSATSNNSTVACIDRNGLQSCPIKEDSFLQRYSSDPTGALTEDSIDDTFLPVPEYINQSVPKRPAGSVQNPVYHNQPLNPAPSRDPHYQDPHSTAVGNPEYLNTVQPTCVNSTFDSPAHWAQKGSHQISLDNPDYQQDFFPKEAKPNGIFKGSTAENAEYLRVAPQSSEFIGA
The target in the next experiment is EGFR (D770_N771insNPG) (Homo sapiens (Human), UniProt P00533, INS770NPG). In words: HotSpot radiometric kinase assay, EGFR (D770_N771insNPG). Conditions: 10 μM ATP, read-out: EGFR (Δ770_N771insNPG) IC50. The method in brief: as §2
Chain of EGFR (D770_N771insNPG) (P00533 other isoform, or with tags, fused parts or gaps del 1-668/ins NPG behind 770 limits assumed): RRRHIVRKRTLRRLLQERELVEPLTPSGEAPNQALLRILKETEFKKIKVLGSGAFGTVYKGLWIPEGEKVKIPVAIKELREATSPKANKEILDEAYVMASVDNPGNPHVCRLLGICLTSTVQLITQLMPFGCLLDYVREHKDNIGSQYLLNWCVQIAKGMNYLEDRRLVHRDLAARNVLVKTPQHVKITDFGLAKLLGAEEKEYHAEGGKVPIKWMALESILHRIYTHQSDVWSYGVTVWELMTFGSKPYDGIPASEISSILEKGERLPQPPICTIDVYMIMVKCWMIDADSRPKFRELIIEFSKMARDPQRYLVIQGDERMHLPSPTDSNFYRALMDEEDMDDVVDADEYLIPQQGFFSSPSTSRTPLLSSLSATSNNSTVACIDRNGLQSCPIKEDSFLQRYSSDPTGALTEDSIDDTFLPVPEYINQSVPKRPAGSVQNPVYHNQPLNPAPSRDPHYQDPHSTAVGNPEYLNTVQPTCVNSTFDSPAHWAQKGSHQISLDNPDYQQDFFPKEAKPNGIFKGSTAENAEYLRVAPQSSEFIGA
The next experiment concerns the target CLK1 (Homo sapiens (Human), UniProt P49759). In words: Inhibition of CLK1 kinase activity evaluated at Nanosyn (ADP-Glo). Particulars: ADP-Glo luminescence. The method in brief:
as §1

The target in the next experiment is EGFR WT (Homo sapiens (Human), UniProt P00533). In words: HotSpot radiometric kinase assay (Reaction Biology), EGFR WT. Conditions: 10 μM ATP. The method in brief: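 Kinase, substrate and cofactors are mixed in 20 mM Hepes pH 7.5 with 10 mM MgCl2, 1 mM EGTA, 2 mM DTT and 1% DMSO. Compound is added, and about 20 min later ATP/33P-ATP (10 μM final) starts a 120-min room-temperature reaction, which is then spotted onto P81 paper.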

Another experiment has as its target EGFR Δ746-750 mutant (Homo sapiens (Human), UniProt P00533, DEL746-750). In words: HotSpot radiometric kinase assay, EGFR Δ746-750 mutant. Conditions: 10 μM ATP. In outline:
as §2

Experiment [2] deals with EGFR L858R/T790M/C797S mutant (Homo sapiens (Human), UniProt P00533, C797S/L858R/T790M). In words: HotSpot radiometric kinase assay, EGFR L858R/T790M/C797S mutant. Conditions: 10 μM ATP. The method in brief:
as §2

For the next experiment, the target named is CLK4 (Homo sapiens (Human), UniProt Q9HAZ1). In words: Inhibition of CLK4 kinase activity evaluated at Nanosyn (ADP-Glo). Particulars: ADP-Glo luminescence. The method in brief: as §1
Chain of CLK4 (Q9HAZ1 whole entry): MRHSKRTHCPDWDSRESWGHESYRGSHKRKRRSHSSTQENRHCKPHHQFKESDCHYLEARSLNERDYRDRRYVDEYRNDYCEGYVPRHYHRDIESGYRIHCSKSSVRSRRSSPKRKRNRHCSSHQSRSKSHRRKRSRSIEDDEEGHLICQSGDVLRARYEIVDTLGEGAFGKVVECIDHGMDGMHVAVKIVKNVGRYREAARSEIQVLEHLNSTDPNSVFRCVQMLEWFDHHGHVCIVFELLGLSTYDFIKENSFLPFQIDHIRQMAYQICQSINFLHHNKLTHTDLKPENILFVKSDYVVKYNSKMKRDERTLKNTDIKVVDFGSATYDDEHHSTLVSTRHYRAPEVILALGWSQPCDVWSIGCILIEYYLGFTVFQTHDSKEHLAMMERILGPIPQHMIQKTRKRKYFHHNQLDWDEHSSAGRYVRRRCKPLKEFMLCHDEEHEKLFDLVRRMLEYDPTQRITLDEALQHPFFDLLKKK
The target of the next experiment is EGFR L858R mutant (Homo sapiens (Human), UniProt P00533, L858R). In words: HotSpot radiometric kinase assay, EGFR L858R mutant. Conditions: 10 μM ATP. The method in brief: as §2
Chain of EGFR L858R mutant (P00533 25-1210 L858R): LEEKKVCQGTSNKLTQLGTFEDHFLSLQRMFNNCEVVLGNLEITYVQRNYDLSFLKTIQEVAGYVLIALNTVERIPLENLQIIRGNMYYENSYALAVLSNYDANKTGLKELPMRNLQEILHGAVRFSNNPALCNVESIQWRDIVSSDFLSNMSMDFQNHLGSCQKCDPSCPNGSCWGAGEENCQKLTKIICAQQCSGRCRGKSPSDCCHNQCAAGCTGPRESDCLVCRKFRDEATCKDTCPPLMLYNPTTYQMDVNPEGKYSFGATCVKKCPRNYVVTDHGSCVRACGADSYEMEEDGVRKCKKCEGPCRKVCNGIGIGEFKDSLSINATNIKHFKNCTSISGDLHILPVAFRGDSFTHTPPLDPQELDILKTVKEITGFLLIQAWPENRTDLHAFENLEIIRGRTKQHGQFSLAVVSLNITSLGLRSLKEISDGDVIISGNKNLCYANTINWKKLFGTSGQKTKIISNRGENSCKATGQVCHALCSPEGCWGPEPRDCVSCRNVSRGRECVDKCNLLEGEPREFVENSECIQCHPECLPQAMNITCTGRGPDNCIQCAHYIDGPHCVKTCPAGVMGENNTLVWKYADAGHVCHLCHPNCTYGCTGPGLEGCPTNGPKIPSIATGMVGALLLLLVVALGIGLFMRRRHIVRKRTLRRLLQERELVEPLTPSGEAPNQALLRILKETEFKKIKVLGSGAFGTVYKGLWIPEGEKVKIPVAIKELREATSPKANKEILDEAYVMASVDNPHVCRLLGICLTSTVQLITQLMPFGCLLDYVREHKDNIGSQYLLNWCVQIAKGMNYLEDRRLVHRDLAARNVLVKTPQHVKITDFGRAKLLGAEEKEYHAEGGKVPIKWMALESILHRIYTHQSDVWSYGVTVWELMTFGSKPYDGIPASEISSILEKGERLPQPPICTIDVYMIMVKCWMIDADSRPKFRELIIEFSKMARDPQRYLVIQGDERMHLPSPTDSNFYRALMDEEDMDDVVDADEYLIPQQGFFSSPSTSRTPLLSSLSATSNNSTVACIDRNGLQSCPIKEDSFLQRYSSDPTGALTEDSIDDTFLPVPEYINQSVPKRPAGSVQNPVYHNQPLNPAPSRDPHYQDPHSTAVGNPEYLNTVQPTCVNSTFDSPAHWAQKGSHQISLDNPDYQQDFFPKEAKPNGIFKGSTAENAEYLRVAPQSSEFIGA

A value given as a limit tells only on which side of the number the result lay.

Consider ten molecules from patent publication US20250353864A1, “INDAZOLE CONTAINING MACROCYCLES AND THEIR USE” (BLOSSOMHILL THERAPEUTICS, INC., priority 2022, published 2025).

Broadly, the IC50 is the point on the concentration scale where inhibition reaches its midpoint.

Chain of CLK2 (P49760 whole entry): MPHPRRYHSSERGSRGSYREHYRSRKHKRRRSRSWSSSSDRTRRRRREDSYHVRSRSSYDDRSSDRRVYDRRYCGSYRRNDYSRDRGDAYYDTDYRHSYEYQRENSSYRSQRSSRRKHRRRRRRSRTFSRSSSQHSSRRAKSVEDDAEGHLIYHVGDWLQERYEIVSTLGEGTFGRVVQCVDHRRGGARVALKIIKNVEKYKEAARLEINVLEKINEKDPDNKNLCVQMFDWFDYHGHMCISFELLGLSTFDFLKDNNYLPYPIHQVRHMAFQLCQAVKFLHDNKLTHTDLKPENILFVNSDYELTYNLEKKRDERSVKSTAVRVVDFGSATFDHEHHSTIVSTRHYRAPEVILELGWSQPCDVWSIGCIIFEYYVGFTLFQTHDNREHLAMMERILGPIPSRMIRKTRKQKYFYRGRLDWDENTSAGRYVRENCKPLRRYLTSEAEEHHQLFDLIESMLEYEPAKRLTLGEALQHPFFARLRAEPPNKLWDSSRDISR
Chain of EGFR L858R/T790M/C797S mutant (P00533 25-1210 T790M/C797S/L858R): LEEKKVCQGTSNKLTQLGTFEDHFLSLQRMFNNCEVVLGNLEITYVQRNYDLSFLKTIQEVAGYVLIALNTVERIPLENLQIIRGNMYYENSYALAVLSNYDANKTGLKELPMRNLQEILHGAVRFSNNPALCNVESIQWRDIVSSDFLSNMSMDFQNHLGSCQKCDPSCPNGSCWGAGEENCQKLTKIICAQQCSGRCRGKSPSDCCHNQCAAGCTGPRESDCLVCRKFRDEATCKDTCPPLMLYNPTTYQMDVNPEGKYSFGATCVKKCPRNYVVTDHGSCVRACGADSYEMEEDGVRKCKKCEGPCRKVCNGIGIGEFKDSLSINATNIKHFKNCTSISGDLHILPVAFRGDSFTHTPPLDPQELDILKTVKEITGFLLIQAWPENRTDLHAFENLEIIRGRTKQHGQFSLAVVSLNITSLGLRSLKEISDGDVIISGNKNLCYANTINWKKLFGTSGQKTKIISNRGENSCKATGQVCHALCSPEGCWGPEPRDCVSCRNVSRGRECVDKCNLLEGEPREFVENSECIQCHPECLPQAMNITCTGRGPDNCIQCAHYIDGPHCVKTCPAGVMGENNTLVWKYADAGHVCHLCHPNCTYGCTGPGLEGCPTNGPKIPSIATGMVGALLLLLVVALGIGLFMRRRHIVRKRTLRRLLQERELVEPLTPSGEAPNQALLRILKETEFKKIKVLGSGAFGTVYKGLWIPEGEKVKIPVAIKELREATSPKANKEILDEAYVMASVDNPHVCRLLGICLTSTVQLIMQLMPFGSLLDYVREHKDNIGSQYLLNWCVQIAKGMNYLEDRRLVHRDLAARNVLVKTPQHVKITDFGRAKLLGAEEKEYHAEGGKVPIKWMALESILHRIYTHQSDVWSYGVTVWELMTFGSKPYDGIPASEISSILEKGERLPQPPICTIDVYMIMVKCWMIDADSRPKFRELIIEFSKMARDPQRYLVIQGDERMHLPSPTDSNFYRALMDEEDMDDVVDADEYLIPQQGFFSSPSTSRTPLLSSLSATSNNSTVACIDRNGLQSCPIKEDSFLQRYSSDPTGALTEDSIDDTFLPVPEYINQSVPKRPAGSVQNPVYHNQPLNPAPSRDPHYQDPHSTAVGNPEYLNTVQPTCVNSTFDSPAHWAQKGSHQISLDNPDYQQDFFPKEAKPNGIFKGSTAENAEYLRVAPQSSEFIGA

As to `CCN1Cc2c(c(C)nn2C)/C=C/c2n[nH]c3ccc(cc23)-c2cnn(C)c2O[C@@H](C)C1` [Example 165, (10S,17E)-12-ethyl-8,10,14,16-tetramethyl-2,10,11,12,13,14-hexahydro-8H-3,5-ethenotripyrazolo[3,4-f:3′,4′-j:4″,3″-n][1,4]oxazacyclopentadecine], the IC50 at CLK3 was determined as 72.4 nM; in [1], 2.33 nM; on CLK2 it was 0.02 nM; against EGFR L858R/T790M mutant, 0.47 nM; at EGFR (D770_N771insNPG), 19 nM; at CLK1 it was 0.1 nM. Besides, the IC50 against EGFR WT was 28.5 nM; against EGFR Δ746-750 mutant, 4.84 nM; in experiment [2] it was 0.44 nM; at CLK4 it was 0.19 nM; against EGFR L858R mutant, 6.08 nM.
`Cc1nn(C)c2c1/C=C/c1n[nH]c3ccc(cc13)-c1cnn(C)c1O[C@@H]1CCN(C2)C1` [Example 167, (10R,18E)-8,15,17-trimethyl-2,8,11,12,14,15-hexahydro-10H-3,5-etheno-10,13-methanotripyrazolo[3,4-g:3′,4′-k:4″,3″- 0][1,5]oxazacyclohexadecine]: the IC50 turned out to be 108 nM on CLK3; 13.6 nM in experiment [1]; 0.23 nM at CLK2; 3.42 nM against EGFR L858R/T790M mutant; 47.1 nM on EGFR (D770_N771insNPG); 0.38 nM on CLK1. For the same molecule, the IC50 against EGFR WT was determined as 123 nM; on EGFR Δ746-750 mutant, 23.8 nM; in experiment [2], 8.89 nM; at CLK4, 0.55 nM; on EGFR L858R mutant, 35.7 nM.
On to `CCOc1nn(CCO)c2c1/C=C/c1n[nH]c3ccc(cc13)-c1cnn(CC)c1O[C@@H](C)CN(C)C2` [Example 168, 2-[(10S,17E)-16-ethoxy-8-ethyl-10,12-dimethyl-2,8,10,11,12,13-hexahydro-14H-3,5-ethenotripyrazolo[3,4-f:3′,4′-j:4″,3″-n][1,4]oxazacyclopentadecin-14-yl]ethan-1-ol], for which the IC50 at CLK3 came out at 238 nM; in experiment [1], 1.38 nM; at CLK2, 0.33 nM; on EGFR L858R/T790M mutant, 0.72 nM; on EGFR (D770_N771insNPG), 13.9 nM; at CLK1, 0.39 nM. Further, the half-inhibitory concentration (IC50) against EGFR WT was 16.6 nM; against EGFR Δ746-750 mutant, 5.96 nM; in experiment [2], 2.72 nM; on CLK4, 0.77 nM; on EGFR L858R mutant, 1.88 nM.
For the molecule `CCn1ncc2c1O[C@@H](C)CN(C)Cc1c(c(OC(C)C)nn1CCO)/C=C/c1n[nH]c3ccc-2cc13` [Example 169, 2-{(10S,17E)-8-ethyl-10,12-dimethyl-16-[(propan-2-yl)oxy]-2,8,10,11,12,13-hexahydro-14H-3,5-ethenotripyrazolo[3,4-f:3′,4′-j:4″,3″- n][1,4]oxazacyclopentadecin-14-yl}ethan-1-ol], the IC50 on CLK3 came to 346 nM; in experiment [1], 1.6 nM; on CLK2, 0.49 nM; on EGFR L858R/T790M mutant, 0.48 nM; on EGFR (D770_N771insNPG), 36.1 nM; at CLK1, 0.47 nM. Besides, the IC50 on EGFR WT is 19.3 nM; against EGFR Δ746-750 mutant, 3.24 nM; in [2], 1.26 nM; on CLK4, 1.13 nM; on EGFR L858R mutant, 2.01 nM.
As to `Cn1ncc2c1OCCN1CC[C@H](C1)Oc1ccccc1/C=C/c1n[nH]c3ccc-2cc13` [Example 170, (10R,16E)-3-methyl-3,5,6,9,10,19-hexahydro-8H-20,22-etheno-7,10-methanodipyrazolo[3,4-i:4′,3′-m][1,8,5]benzodioxazacyclooctadecine], the IC50 at CLK3 worked out at 1000 nM; in experiment [1], 30.2 nM; on CLK2, 0.36 nM; on EGFR L858R/T790M mutant, 36.6 nM; at EGFR (D770_N771insNPG) it was 329 nM; on CLK1, 0.38 nM. In addition, the IC50 is 908 nM against EGFR WT; 116 nM on EGFR Δ746-750 mutant; 25.9 nM in [2]; 0.43 nM on CLK4; 310 nM against EGFR L858R mutant.
Consider `CCOc1nn([C@H](C)CO)c2c1/C=C/c1n[nH]c3ccc(cc13)-c1cnn(C)c1O[C@@H](C)CN(C)C2` [Example 171, (2R)-2-[(10S,17E)-16-ethoxy-8,10,12-trimethyl-2,8,10,11,12,13-hexahydro-14H-3,5-ethenotripyrazolo[3,4-f:3′,4′-j:4″,3″-n][1,4]oxazacyclopentadecin-14-yl]propan-1-ol], for which the IC50 on CLK3 turned out to be 977 nM; in [1] it was 8.74 nM; at CLK2, 0.62 nM; against EGFR L858R/T790M mutant, 0.5 nM; on EGFR (D770_N771insNPG) it was 86 nM; at CLK1 it was 0.85 nM. Besides, the IC50 came to 67.2 nM on EGFR WT; 38.3 nM on EGFR Δ746-750 mutant; 1.32 nM in [2]; 0.57 nM on CLK4; 7.5 nM against EGFR L858R mutant.
Take `CCOc1nn(CCO)c2c1/C=C/c1n[nH]c3cc(F)c(cc13)-c1cnn(C)c1O[C@@H](C)CN(C)C2` [Example 172, 2-[(10S,17E)-16-ethoxy-19-fluoro-8,10,12-trimethyl-2,8,10,11,12,13-hexahydro-14H-3,5-ethenotripyrazolo[3,4-f:3′,4′-j:4″,3″- n][1,4]oxazacyclopentadecin-14-yl]ethan-1-ol]: the IC50 on CLK3 came out at 64.7 nM; in experiment [1] it was 0.69 nM; at CLK2, 0.08 nM; on EGFR L858R/T790M mutant it was 0.48 nM; at EGFR (D770_N771insNPG), 6.61 nM; on CLK1, 0.32 nM. Further, the IC50 on EGFR WT came out at 1.84 nM; on EGFR Δ746-750 mutant, 2.1 nM; in experiment [2], 1.34 nM; at CLK4 it was 0.59 nM; on EGFR L858R mutant it was 0.6 nM.
Regarding `C[C@H]1CN(C)Cc2onc(C3CC3)c2/C=C/c2n[nH]c3ccc(cc23)-c2cnn(C)c2O1` [Example 173, (10S,17E)-16-cyclopropyl-8,10,12-trimethyl-2,8,10,11,12,13-hexahydro-3,5-etheno[1,2]oxazolo[5,4-f]dipyrazolo[3,4-j:4′,3′-n][1,4]oxazacyclopentadecine], the IC50 at CLK3 is 1000 nM; in experiment [1], 127 nM; at CLK2, 0.89 nM; at EGFR L858R/T790M mutant it was 45.5 nM; at EGFR (D770_N771insNPG), more than 1000 nM; on CLK1, 0.7 nM. For the same molecule, the IC50 is more than 1000 nM against EGFR WT; 533 nM on EGFR Δ746-750 mutant; 27.4 nM in experiment [2]; 1.26 nM on CLK4; 513 nM against EGFR L858R mutant.
For the molecule `CCc1noc2c1/C=C/c1n[nH]c3ccc(cc13)-c1cnn(C)c1O[C@@H](C)CN(C)C2` [Example 174, (10S,17E)-16-ethyl-8,10,12-trimethyl-2,8,10,11,12,13-hexahydro-3,5-etheno[1,2]oxazolo[5,4-f]dipyrazolo[3,4-j:4′,3′-n][1,4]oxazacyclopentadecine], the half-inhibitory concentration (IC50) on CLK3 amounted to 128 nM; in [1], 27.2 nM; at CLK2, 0.21 nM; at EGFR L858R/T790M mutant, 10.9 nM; on EGFR (D770_N771insNPG) it was 996 nM; at CLK1 it was 0.16 nM. The concentration for half-maximal inhibition (IC50) at EGFR WT stood at 752 nM; against EGFR Δ746-750 mutant it was 133 nM; in experiment [2], 4.88 nM; at CLK4, 0.51 nM; at EGFR L858R mutant it was 127 nM.
For the molecule `Cc1nn(C)c2c1/C=C/c1n[nH]c3ccc(cc13)-c1cnn(C)c1O[C@H]1CCCN(C2)C1` [Example 176, (10S,19E)-8,16,18-trimethyl-2,8,10,11,12,13,15,16-octahydro-3,5-etheno-10,14-methanotripyrazolo[3,4-h:3′,4′-l:4″,3″- p][1,6]oxazacycloheptadecine], the IC50 is 1000 nM on CLK3; 35.2 nM in experiment [1]; 11.8 nM on CLK2; 6.94 nM on EGFR L858R/T790M mutant; 83.4 nM at EGFR (D770_N771insNPG); 1.54 nM on CLK1. Besides, the IC50 against EGFR WT was found to be 152 nM; against EGFR Δ746-750 mutant it was 24.9 nM; in experiment [2] it was 13.1 nM; on CLK4 it was 1.44 nM; against EGFR L858R mutant, 55.5 nM.
